Measured values: patent US8343536B2, “Biofilm-inhibiting medical products” (Cook Biotech Incorporated, priority 2007, dated 2013)

Legend:
Type in all cases: cell-based
S. aureus (ATCC #25983) = assay: Zone-of-inhibition after various rehydration times of coated SIS discs (Example 3)
Method: BisEDT (Molar ratio 1:1.5) and BisBAL (1:1.5) (50 mg each) were obtained from Microbion, Inc. Small intestinal submucosa (SIS) was obtained and processed into 4-layer lyophilized sheets as described in Example 1. The sheets were subsequently cut into 15 mm discs (˜1.76 cm^2) using a disc punch. Bismuth thiols were resuspended in dimethyl sulfoxide (DMSO) and diluted to appropriate concentrations for coating. Discs were coated with the bismuth thiol solutions at a final concentration of 0.35 μg/μl using 50 μl of the solution per disc for a final concentration of 10 μg/cm^2. The discs were subsequently placed in a lyophilizer overnight to remove the DMSO solvent. S. aureus (ATCC #25983) was used as the bacteria for this experiment. Bacteria was grown in Tryptic Soy Broth for 16-24 hours before placing a lawn on Tryptic Soy Agar in 100 mm Petri dishes.
Thirty six samples were tested in total (2 BT*n=3→6*6 rehydration times→36). A lawn of S. aureus was swabbed onto the Tryptic Soy Agar. For the 0 rehydration time point, the bismuth thiol coated disc was placed approximately in the center of the plate and rehydrated with ˜50 μl of sterile saline. Other rehydration times were varied at 5, 10, 20, 30, or 60 minutes. For this, the samples were placed in sterile saline and a timer set for each time. At the appropriate time, samples were removed from the saline and placed approximately in the center of the plate. Plates were incubated inverted for 24 hours at which time pictures were taken with a digital camera. Zones-of-inhibition were compared visually between groups.

[1] = system: C. albicans (ATCC #10231); assay: Anti-fungal zone-of-inhibition / growth inhibition, coated SIS discs (Example 5); conditions: 100 μg/cm^2 on SIS disc, ~48 hours
Method: (§1) BisEDT was obtained from Microbion, Inc. as previously described. Small intestinal submucosa (SIS) was obtained and processed into 4-layer lyophilized sheets as described in Example 1. The sheets were subsequently cut into 15 mm discs (˜1.76 cm^2) using a disc punch. BisEDT was resuspended in dimethyl sulfoxide (DMSO) and diluted to appropriate concentrations for coating. Discs were coated with the BisEDT solution at a final concentration of 3.5 μg/μl using 50 μl of the solution per disc for a final concentration of 100 μg/cm^2. The discs were subsequently placed in a lyophilizer overnight to remove the DMSO solvent. A total of 6 coated discs were made—3 each for the two microorganisms investigated. These were compared against 3 uncoated controls discs cut from the same lot of SIS for each microorganism. C. albicans (ATCC #10231) and A. niger(ATCC #16404) were plated on Rose Bengal Chloramphenicol (RBC) in Petri dishes.
(§2) The experiment consisted of a total of […] (3 BisEDT 100 μg/cm^2 coated, 3 uncoated controls) for each fungus. A lawn of either C. albicans or A. niger was swabbed onto the RBC plates. Each disc was rehydrated in sterile saline for ˜5 minutes then placed approximately in the center of the plate. Plates were incubated inverted for ˜48 hours for C. albicans or 5 and 8 days for A. niger at which time pictures were taken with a digital camera. Zones-of-inhibition or growth inhibition was compared visually between groups.

A. niger(ATCC #16404) = assay: as above; conditions: 100 μg/cm^2 on SIS disc
Method: as §1, §2

bismuth-1,2-ethanedithiol [BisEDT]
Effect of rehydration time on zone-of-inhibition, visual comparison (S. aureus (ATCC #25983); 10 μg/cm^2, rehydration 0-60 minutes in sterile saline): no visual differences between the rehydration time points
Zone-of-inhibition, visual (S. aureus (ATCC #25983); 10 μg/cm^2 on SIS disc, rehydration 0, 5, 10, 20, 30 or 60 minutes): significant effectiveness in creating a zone-of-inhibition
Zone-of-inhibition from the disc edge [1]: ~1 mm
Mold growth on coated disc (A. niger(ATCC #16404); 5 days): able to grow up to the disc edge but not on the BisEDT coated disc
Mold growth on coated disc (A. niger(ATCC #16404); eight day time point): still unable to grow on the BisEDT coated discs
